{"source": "ChEMBL document CHEMBL1687832", "about": "“Polymyxin-resistant clinical isolates of Escherichia coli” (Antimicrob Agents Chemother, 2011)", "type_in_all_cases": "functional, organism-based", "key": {"[1]": {"system": "Escherichia coli", "experiment": "Antimicrobial activity against drug-resistant Escherichia coli isolate 1 expressing beta-lactamase CTX-M-15 isolated from urine of patient with history of hypertension, hyperlipidemia by Etest"}, "[2]": {"system": "Escherichia coli", "experiment": "(§1) Antimicrobial activity against drug-resistant Escherichia coli isolate 2 expressing beta-lactamase CTX-M-15 isolated from patient past medical history included multiple courses of compound treatment, multiple sclerosis, pulmonary embolism, seizure disorder, tracheostomy for respiratory failure, gastrostomy secondary to dysphagia, congestive heart failure, diabetes mellitus, and peripheral inserted central by microdilution method"}, "[3]": {"system": "Escherichia coli", "experiment": "Antimicrobial activity against drug-resistant Escherichia coli isolate 1 expressing beta-lactamase CTX-M-15 isolated from urine of patient with history of hypertension, hyperlipidemia by broth microdilution method"}, "[4]": {"system": "Escherichia coli", "experiment": "as §1, with “Etest” for “microdilution method”"}, "[5]": {"system": "Escherichia coli", "experiment": "Antimicrobial activity against Escherichia coli ATCC 25922 by Etest"}, "[6]": {"system": "Escherichia coli", "experiment": "Antimicrobial activity against Escherichia coli ATCC 25922 by broth microdilution method"}}}
{"sequence": "COLISTIN", "values": [{"measurement": "MIC", "setting": "[1]", "result": 16, "unit": "mg/L"}, {"measurement": "MBC", "setting": "[2]", "result": 32, "unit": "mg/L"}, {"measurement": "MIC", "setting": "[2]", "result": 32, "unit": "mg/L"}, {"measurement": "MBC", "setting": "[3]", "result": 16, "unit": "mg/L"}, {"measurement": "MIC", "setting": "[3]", "result": 16, "unit": "mg/L"}, {"measurement": "MIC", "setting": "[4]", "result": 16, "unit": "mg/L"}, {"measurement": "MIC", "setting": "[5]", "result": 1.5, "unit": "mg/L"}, {"measurement": "MBC", "setting": "[6]", "result": 1, "unit": "mg/L"}, {"measurement": "MIC", "setting": "[6]", "result": 1, "unit": "mg/L"}]}
{"sequence": "POLYMYXIN B", "values": [{"measurement": "MIC", "setting": "[1]", "result": 16, "unit": "mg/L"}, {"measurement": "MBC", "setting": "[2]", "result": 32, "unit": "mg/L"}, {"measurement": "MIC", "setting": "[2]", "result": 16, "unit": "mg/L"}, {"measurement": "MBC", "setting": "[3]", "result": 32, "unit": "mg/L"}, {"measurement": "MIC", "setting": "[3]", "result": 16, "unit": "mg/L"}, {"measurement": "MIC", "setting": "[4]", "result": 24, "unit": "mg/L"}, {"measurement": "MIC", "setting": "[5]", "result": 1, "unit": "mg/L"}, {"measurement": "MBC", "setting": "[6]", "result": 0.5, "unit": "mg/L"}, {"measurement": "MIC", "setting": "[6]", "result": 0.5, "unit": "mg/L"}]}
